{"source": "patent US12377095B2", "about": "“Use of ligustrazine nitrone derivatives in treatment and prevention of diabetic complication diseases” (QINGDAO HAILAN PHARMACEUTICALS CO., LTD., priority 2019, dated 2025)", "key": {"STZ-induced DKD rats [1]": {"tested_on": "STZ-induced DKD rats", "assay": "Body weight, water intake and food intake of STZ-induced DKD rats", "assay_type": "in vivo, rat", "procedure": "SD rats (200±10 g) were used as model animals, which were fasted for 12 h before injection. STZ was dissolved in citrate buffer at 1% concentration, and rats were fasted and intraperitoneally injected with 55 mg/kg STZ and placed in the cage, the rats being ensured with adequate water intake for 24 h. STZ injections need to be fast and complete within 10 minutes of injection. The normal control group was injected with an equal volume of pH 4.5 citric acid-sodium citrate buffer. The state of the animals (multiple drinking and polyuria) was observed. After 3 weeks of STZ injection, blood was collected from the tail vein, and fasting blood glucose ≥16.7 mmol/L was measured as the standard for diabetic nephropathy in rats.\nDKD rats were randomly assigned to 6 groups and given with different drugs. After 6 weeks of administration, the experiment was terminated and the protective effect of the drug on DKD rats was observed.\nThe general condition and body weight changes after rat modeling were observed weekly. The general conditions include the activity, mental state, coat color, diet, water intake and urine volume of the rats. The amount of water and the amount of feed were recorded weekly."}, "[2]": {"tested_on": "diabetic neuropathy model rats", "assay": "Thermal radiation stimulation in diabetic neuropathy model rats", "assay_type": "in vivo, rat", "conditions": "TBN 30 mg/kg twice a day, 4 weeks of administration (8 weeks after STZ), P<0.05", "procedure": "Modeling method: STZ was weighed and transferred to a centrifuge tube, wrapped with aluminum foil, kept away from light, and stored at −20° C. STZ sodium citrate solution is prepared when it is in need to use. The rats were fasted without water for 12 hours before injection. After weighing, the rats were injected with 55 mg/kg STZ intraperitoneally (STZ needs to be injected quickly, and the injection was completed within 10 minutes), and then returned to the cage to ensure that the rats had sufficient drinking water for 24 hours. Rats were injected with an equal volume of citrate buffer (pH 4.5). Four weeks after STZ injection, blood was collected from the tail vein, and the rats with blood glucose less than 16.7 mmol/L were eliminated; the taillick threshold temperature was increased, and the mechanical withdrawal threshold (MWT) was decreased, as the standard of a successful DPN model.\nThe animals were randomly divided into 3 groups (n=7), namely the normal control group, the model group, and the TBN (30 mg/kg) group. The normal group and the model group were injected with an equal volume of normal saline, and TBN was administered twice a day (fixed at 9:00-10:00 am and 3:00-4:00 pm), continuously for 4 weeks. […]"}, "STZ-induced DKD rats [3]": {"tested_on": "STZ-induced DKD rats", "assay": "HE staining of kidney tissue, STZ-induced SD rat DKD model", "assay_type": "in vivo", "procedure": "Before the injection, the rats were fasted for 12 hours without water. After weighing, the rats were injected with 55 mg/kg STZ intraperitoneally (STZ needs to be injected quickly, and the injection was completed within 10 minutes), and then returned to the cage to ensure that the rats had sufficient drinking water for 24 hours. Rats were injected with an equal volume of citrate buffer (pH 4.5). After STZ injection for 3 weeks, blood was collected from the tail vein, and blood glucose ≥16.7 mmol/L was used as the criteria for the standard of the rats.\nThe route of administration is intragastric administration. TBN was administered twice a day (fixed at 9:00-10:00 am and 3:00-4:00 pm), and Losartan was administered once a day (fixed at 9:00-10:00 am) continuously for 6 weeks.\nAt the end of the experiment, kidney tissues were quickly separated, fixed with 4% paraformaldehyde and embedded in paraffin, serially sliced, 5 μm each, dried at 37° C. for 1 h, and then stained with hematoxylin and eosin (HE). The process is briefly as follows: paraffin sections were taken out of the 65° C. oven and immediately put in xylene to dewax and rehydrated with gradient alcohol, stained with hematoxylin staining solution for 10 minutes, and microscopically controlled alcohol differentiation with 1% hydrochloric acid was performed until the chromatin of the nucleus and the nucleus becomes clear; 1% ammonia water-ethanol solution is blue; 0.5% eosin Y-ethanol solution is stained for 3 min, and finally dehydrated routinely, mounted, and the tissue morphology changes are observed under a light microscope. […] The glomerular volume of rats in the DKD group of the Vehicle group increased, the mesangial area was diffusely widened, the mesangial cells were proliferated, the capillary loops were expanded, the mesangial matrix increased, and the glomerular capillary basement membrane was irregularly thickened. Renal pathological changes such as vacuole deformation, shedding of renal tubular epithelial cells and infiltration of a large number of inflammatory cells (FIG. 9A)."}, "db/db mice": {"tested_on": "db/db mice", "assay": "Serum EPO content of db/db mice", "assay_type": "in vivo, mouse", "parameters": "serum EPO content: unit not given here", "conditions": "for serum EPO content: 6 weeks, db/db group 257.19±67.80 ng/L", "excerpt": "db/db mice are congenital obese type 2 DKD mice with spontaneous mutations in the leptin receptor (Leptin receptor, Lepr) due to a point mutation in the leptin receptor gene GT located on chromosome 4. The course of polyphagia, polyuria, diabetes and hyperglycemia is similar to that of humans, and it is currently the most widely used type 2 spontaneous animal model of DKD. The db/db mice have a series of complications with the aggravation of diabetes. The main pathological changes of renal tissue are the expansion of the glomerular mesangial interstitium, the thickening of the glomerular basement membrane, and the excessive accumulation of extracellular matrix. However, the glomerular mesangium of db/db mice changes relatively slowly, and the glomerular mesangium will not be dissolved or nodular glomerulosclerosis, and there is no progressive renal insufficiency.\nSix-week-old db/db mice were purchased, and start the administration after adaptive feeding for 1 week (i.e., 7-week-old). TBN is administered twice a day (fixed by starting from 9:00-10:00 am and 3:00-4:00 pm, with an interval of 6 hours), and the positive control drug Losartan was administered once a day (fixed at 9:00-10:00 am) for 6 weeks.\nAt the end of the experiment, after rats were anesthetized, the blood was taken from the abdominal aorta, allowed to stand for 1 h, centrifuged at 3000 rmp for 10 min and with the supernatant collected, and serum erythropoietin levels were measured according to the kit instructions."}}}
{"compound": "Cc1nc(C)c(/C=[N+](\\[O-])C(C)(C)C)nc1C", "note": "[TBN]", "values": [{"measurement": "body weight", "setting": "STZ-induced DKD rats [1]; STZ-induced diabetic nephropathy rats, FIG. 1a", "value": "no effect"}, {"measurement": "water intake", "setting": "STZ-induced DKD rats [1]; vs model group, FIG. 1b", "value": "significantly lower"}, {"measurement": "food intake", "setting": "STZ-induced DKD rats [1]; vs model group, FIG. 1c", "value": "significantly lower"}, {"measurement": "pain threshold of heat stimulation (hindlimb lifting latency) vs model group", "setting": "[2]", "value": "increase"}, {"measurement": "renal pathological changes (HE)", "setting": "STZ-induced DKD rats [3]; 60 mg/kg i.g. twice/day, 6 weeks", "value": "improved the most"}, {"measurement": "renal pathological changes (HE)", "setting": "STZ-induced DKD rats [3]; each dose group of TBN (10, 30, 60 mg/kg i.g. twice/day, 6 weeks)", "value": "improved"}, {"measurement": "serum EPO content", "setting": "db/db mice; 10 mg/kg", "value": "265.04±79.32"}, {"measurement": "serum EPO content", "setting": "db/db mice; 30 mg/kg", "value": "288.80±36.78"}, {"measurement": "increase in serum EPO content compared with positive control drug", "setting": "db/db mice; each dose group of TBN", "value": "stronger than that of the positive control drug"}, {"measurement": "serum EPO level", "setting": "db/db mice; spontaneous db/db mice, TBN administration", "value": "tendency to increase"}]}
